Results published in ChEMBL document CHEMBL4834420, “Projected Dose Optimization of Amino- and Hydroxypyrrolidine Purine PI3Kδ Immunomodulators” (J Med Chem, 2021).

How the values were obtained:
[1] = molecular target: PI3-kinase p110-delta/p85-alpha (Homo sapiens, UniProt O00329); assay: Inhibition of N-terminal His6-tagged recombinant full length human p110delta/untagged recombinant full length human p85alpha expressed in baculovirus infected Sf21 insect cells using PIP2 as substrate preincubated for 15 mins followed by substrate addition and measured after 1 hr by HTRF assay
Chain of PI3-kinase p110-delta/p85-alpha (P27986 whole entry, one chain of several, canonical isoform): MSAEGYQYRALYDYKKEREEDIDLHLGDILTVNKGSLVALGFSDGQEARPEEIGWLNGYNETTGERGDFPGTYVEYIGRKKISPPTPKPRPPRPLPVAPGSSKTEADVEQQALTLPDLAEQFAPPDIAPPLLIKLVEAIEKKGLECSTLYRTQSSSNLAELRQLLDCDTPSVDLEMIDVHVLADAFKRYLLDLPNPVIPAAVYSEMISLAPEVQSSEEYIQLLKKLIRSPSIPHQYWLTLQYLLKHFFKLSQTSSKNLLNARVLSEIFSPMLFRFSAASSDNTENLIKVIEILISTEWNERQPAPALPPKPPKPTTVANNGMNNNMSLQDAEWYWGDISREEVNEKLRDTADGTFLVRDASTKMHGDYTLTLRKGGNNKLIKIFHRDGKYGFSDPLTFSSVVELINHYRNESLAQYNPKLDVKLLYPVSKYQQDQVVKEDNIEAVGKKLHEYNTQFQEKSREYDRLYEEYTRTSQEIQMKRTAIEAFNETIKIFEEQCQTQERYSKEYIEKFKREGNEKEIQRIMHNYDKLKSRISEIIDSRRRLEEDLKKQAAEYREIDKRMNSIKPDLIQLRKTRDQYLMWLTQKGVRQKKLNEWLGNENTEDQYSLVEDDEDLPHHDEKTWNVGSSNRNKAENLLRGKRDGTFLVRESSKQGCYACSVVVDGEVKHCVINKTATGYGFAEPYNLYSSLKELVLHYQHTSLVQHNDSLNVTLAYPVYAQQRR

[2] = molecular target: T1, Phosphatidylinositol 4,5-bisphosphate 3-kinase catalytic subunit delta isoform (Homo sapiens, UniProt O00329); assay: Inhibition of PI3Kdelta in human Ramos cells assessed as reduction in anti-IgM-antibody-induced phosphorylation of AKT at Ser473 residue preincubated for 20 mins followed by anti-IgM antibody stimulation and measured after 30 mins by alphascreen assay; assay type: cell-based
T1 sequence (O00329 whole entry): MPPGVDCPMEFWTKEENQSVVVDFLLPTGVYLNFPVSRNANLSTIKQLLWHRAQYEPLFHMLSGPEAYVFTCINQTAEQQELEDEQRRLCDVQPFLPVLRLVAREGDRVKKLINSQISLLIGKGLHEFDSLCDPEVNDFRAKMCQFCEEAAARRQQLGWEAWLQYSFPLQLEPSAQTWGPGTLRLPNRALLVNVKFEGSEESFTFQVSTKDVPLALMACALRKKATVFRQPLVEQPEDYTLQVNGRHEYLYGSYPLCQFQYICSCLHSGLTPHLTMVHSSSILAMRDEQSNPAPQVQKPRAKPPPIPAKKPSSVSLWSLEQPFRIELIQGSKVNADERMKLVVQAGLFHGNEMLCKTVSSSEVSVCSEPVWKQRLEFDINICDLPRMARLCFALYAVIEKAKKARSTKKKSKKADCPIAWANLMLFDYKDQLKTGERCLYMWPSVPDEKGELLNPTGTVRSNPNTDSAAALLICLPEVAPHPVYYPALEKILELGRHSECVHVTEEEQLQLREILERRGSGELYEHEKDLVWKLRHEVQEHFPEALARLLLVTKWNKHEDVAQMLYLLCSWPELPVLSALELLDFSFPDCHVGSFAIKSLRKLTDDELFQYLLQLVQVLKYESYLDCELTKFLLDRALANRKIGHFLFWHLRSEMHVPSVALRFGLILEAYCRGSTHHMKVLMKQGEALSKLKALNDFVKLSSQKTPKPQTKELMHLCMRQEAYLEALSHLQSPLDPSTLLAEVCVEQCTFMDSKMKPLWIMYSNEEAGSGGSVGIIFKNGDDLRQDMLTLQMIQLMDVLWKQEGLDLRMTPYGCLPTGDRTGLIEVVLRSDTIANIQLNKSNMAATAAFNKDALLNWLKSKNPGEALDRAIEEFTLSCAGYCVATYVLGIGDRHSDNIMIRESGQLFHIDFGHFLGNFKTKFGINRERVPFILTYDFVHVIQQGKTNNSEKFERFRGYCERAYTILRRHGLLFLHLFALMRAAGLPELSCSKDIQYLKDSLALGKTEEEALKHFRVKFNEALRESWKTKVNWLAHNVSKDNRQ

[3] = Inhibition of adenosine transporter in human HeLa cells assessed as reduction in [3H]adenosine uptake preincubated for 30 mins followed by [3H]adenosine addition and measured after 60 mins; assay type: cell-based
[4] = Apparent permeability in pig LLC-PK1 cells; assay type: ADME, cell-based, Sus scrofa
[5] = Lipophilicity, log D of the compound by HPLC analysis; assay type: physicochemical
[6] = Plasma clearance in Wistar Han rat at 0.5 mg/kg, iv or 1 mg/kg, po; assay type: ADME, organism-based
[7] = Intrinsic clearance in Wistar Han rat at 0.5 mg/kg, iv or 1 mg/kg, po; assay type: ADME, organism-based; conditions: in vivo
[8] = Volume of distribution in Wistar Han rat; assay type: ADME; conditions: in vivo
[9] = Unbound volume of distribution in Wistar Han rat; assay type: ADME; conditions: in vivo
[10] = Half-life in Wistar Han rat; assay type: ADME; conditions: in vivo
[11] = Oral bioavailability in Wistar Han rat; assay type: ADME, organism-based; conditions: in vivo
[12] = Plasma clearance in Beagle dog at 0.05 mg/kg; assay type: ADME, organism-based, Canis lupus familiaris
[13] = Intrinsic clearance in Beagle dog at 0.05 mg/kg; assay type: ADME, organism-based, Canis lupus familiaris; conditions: in vivo
[14] = Volume of distribution in Beagle dog; assay type: ADME, Canis lupus familiaris; conditions: in vivo
[15] = Unbound volume of distribution in Beagle dog; assay type: ADME, Canis lupus familiaris; conditions: in vivo
[16] = Half-life in Beagle dog; assay type: ADME, Canis lupus familiaris; conditions: in vivo
[17] = molecular target: T1, Phosphatidylinositol 4,5-bisphosphate 3-kinase catalytic subunit delta isoform; assay: Inhibition of PI3Kdelta in human whole blood assessed as reduction in anti-CD79b antibody-induced CD69 expression preincubated for 60 mins followed by anti-CD79b antibody stimulation and measured after 3 hrs by FACS analysis; assay type: tissue-based
[18] = Plasma clearance in Beagle dog at 0.25 mg/kg, iv or 0.5 mg/kg, po; assay type: ADME, organism-based, Canis lupus familiaris
[19] = Intrinsic clearance in Beagle dog at 0.25 mg/kg, iv or 0.5 mg/kg, po; assay type: ADME, organism-based, Canis lupus familiaris; conditions: in vivo
[20] = Oral bioavailability in Beagle dog; assay type: ADME, organism-based, Canis lupus familiaris; conditions: in vivo

| Compound | IC50 [1] | IC50 [2] | IC50 [3] | Papp [4] | logD [5] | clearance [6] | CL [7] | Vd [8] | Vdu [9] | half-life [10] | bioavailability [11] | clearance [12] | CL [13] | Vd [14] | Vdu [15] | half-life [16] | IC50 [17] | clearance [18] | CL [19] | bioavailability [20] |
| --- | --- | --- | --- | --- | --- | --- | --- | --- | --- | --- | --- | --- | --- | --- | --- | --- | --- | --- | --- | --- |
| CCC(=O)N1CC[C@H](Nc2ncnc3c2nc(-c2cnc(C)nc2)n3CC)C1 | 1.9 nM | 42 nM | > 10000 nM | 21 ×10⁻⁶ cm/s | 0.7 | 21 mL/min/kg | 100 mL/min/kg | 1 L/kg | 3.6 L/kg | 1.5 h | 61% | 5.5 mL/min/kg | 9 mL/min/kg | 1.5 L/kg | 1.9 L/kg | 2.7 h | – | – | – | – |
| CCn1c(-c2cnc(C)nc2)nc2c(O[C@H]3CCN(C(=O)C4CCOCC4)C3)ncnc21 | 13 nM | 390 nM | > 10000 nM | – | 0.8 | 14 mL/min/kg | 37 mL/min/kg | 0.8 L/kg | 1.5 L/kg | 1.4 h | 31% | 4.3 mL/min/kg | 7 mL/min/kg | 0.8 L/kg | 1.1 L/kg | 1.9 h | – | – | – | – |
| CCn1c(-c2ccc(C(F)(F)F)nc2)nc2c(N[C@H]3CCN(C(=O)C4CC4)C3)ncnc21 | 1.7 nM | 12 nM | 1200 nM | – | 2 | 4.7 mL/min/kg | 104 mL/min/kg | 0.4 L/kg | 8.8 L/kg | 1.2 h | 36% | 5.6 mL/min/kg | 22 mL/min/kg | 1.2 L/kg | 3.9 L/kg | 3.1 h | – | – | – | – |
| CCn1c(-c2cnc(C)nc2)nc2c(N[C@H]3CCN(C(=O)[C@H]4C[C@@H](OC)C4)C3)ncnc21 | 0.8 nM | 34 nM | 6100 nM | 10 ×10⁻⁶ cm/s | 0.9 | 6.9 mL/min/kg | 81 mL/min/kg | 1.5 L/kg | 4.1 L/kg | 2.3 h | 52% | – | – | 1.5 L/kg | 2 L/kg | 4.3 h | 26 nM | 7.1 mL/min/kg | 13 mL/min/kg | 85% |
| CCn1c(-c2cnc(C)nc2)nc2c(O[C@H]3CCN(C(=O)C4CC4)C3)ncnc21 | 5.9 nM | 80 nM | 5300 nM | 28 ×10⁻⁶ cm/s | 1 | 9.7 mL/min/kg | 44 mL/min/kg | 0.7 L/kg | 2.8 L/kg | 1.8 h | 64% | – | – | 0.6 L/kg | 0.7 L/kg | 1.3 h | 270 nM | 4.9 mL/min/kg | 7 mL/min/kg | 100% |
| CCn1c(-c2ccc(C(F)(F)F)nc2)nc2c(O[C@H]3CCN(C(=O)C4CCOC4)C3)ncnc21 (stereo partly specified) | 4.1 nM | 110 nM | 3200 nM | 27 ×10⁻⁶ cm/s | 1.9 | 1.2 mL/min/kg | 19 mL/min/kg | 0.2 L/kg | 3.6 L/kg | 2.3 h | 58% | – | – | 0.9 L/kg | 1.6 L/kg | 3.6 h | 100 nM | 3.4 mL/min/kg | 6 mL/min/kg | 100% |
| CCn1c(-c2ccc(C(F)(F)F)nc2)nc2c(O[C@H]3CCN(C(=O)c4cocn4)C3)ncnc21 | 7.5 nM | 300 nM | 4400 nM | 29 ×10⁻⁶ cm/s | 2 | 1.3 mL/min/kg | 13 mL/min/kg | 0.3 L/kg | 2.6 L/kg | 6 h | 100% | – | – | 1.2 L/kg | 3.4 L/kg | 2.5 h | 380 nM | 5.6 mL/min/kg | 19 mL/min/kg | 100% |
| CCn1c(-c2cnc(C)nc2)nc2c(N[C@H]3CCN(C(=O)C4CCC4)C3)ncnc21 | 0.4 nM | 4 nM | 1200 nM | 32 ×10⁻⁶ cm/s | 1.2 | 13 mL/min/kg | 320 mL/min/kg | 0.5 L/kg | 9.2 L/kg | 0.6 h | 74% | – | – | 1.3 L/kg | 2.3 L/kg | 1.3 h | 14 nM | 11 mL/min/kg | 30 mL/min/kg | 84% |
| CCn1c(-c2cnc(C)nc2)nc2c(O[C@H]3CCN(C(=O)N4CC(OC)C4)C3)ncnc21 | 3.3 nM | 63 nM | 8700 nM | – | 0.9 | 4 mL/min/kg | 25 mL/min/kg | 0.4 L/kg | 2.1 L/kg | 1.7 h | 75% | 12 mL/min/kg | 32 mL/min/kg | 1.4 L/kg | 2.3 L/kg | 1.2 h | – | – | – | – |
